Assays:
[1] = tested on: Human dermal fibroblasts (HF cells); experiment: Protection against t-butyl hydroperoxide toxicity in human fibroblasts (XTT); type: cell-based; details: 80 μM with 0.5 mM t-BHP
Description: (§1) Human dermal fibroblasts (HF cells) were obtained from the American type tissue Culture Collection at passage 1 and cultured and propagated in a medium (HF medium) consisting of Dulbecco's Modified Eagle's Medium with 4.5 g/l D-glucose, 10% calf serum 4 mM glutamine, 50 units/ml penicillin, and 50 μg/ml streptomycin in a 37° C. humidified incubator equilibrated with 5% CO2. Cells were used at passages 5 or 6 for experiments. For cell protection assays, HF cells were seeded at a density of about 15,000 cells per cm2 onto 96-well culture plates and allowed to grow to confluence. […] After 2 hr., the absorbance at 490 nm was measured in a BioRad (Richmond, Calif.) Model 3550 plate-reader, using a reference wavelength of 655 nm. […] Absorbance measurements for blank wells, containing HF medium and XTT reagent but no cells, were also determined. […] Fresh HF medium was then added and cell viability assessed using the XTT reagent as described above. […]
Cell protection assays were performed as described under Experimental Procedures with salen-manganese complexes administered at the indicated concentrations and t-BHP at 0.5 mM. Cell viability was assessed using the XTT reagent as described and is expressed as the absorbance at 490 nm uncorrected for blank. […]

[2] = tested on: Human dermal fibroblasts (HF cells); experiment: Protection against glucose and glucose oxidase toxicity in human fibroblasts (XTT); type: cell-based; details: glucose oxidase 0.019 units/ml
Description: Cytotoxicity studies were performed as described under Experimental procedures. Absorbance values, corrected by subtracting the blank signal of 0.17 OD units, are the means±sd of triplicate samples. Control cells (open circle) received no glucose oxidase. Catalase-treated (solid circle) cells received glucose oxidase (0.019) units/ml) as well as bovine liver catalase (290 units/ml). Other samples received the same dose of glucose oxidase and the indicated concentrations of salen manganese complex.
as §1, with “experiments.” for “experiments. For cell protection assays, HF cells were seeded at a density of about 15,000 cells per cm2 onto 96-well culture plates and allowed to grow to confluence.”

[3] = Peroxidase activity toward t-BHP, ABTS oxidation; type: biochemical; details: 1 mM t-BHP versus same concentration of H2O2
Description: (§2) Peroxidase activity was assayed by monitoring the hydrogen peroxide-dependent oxidation of 2,2′-azino-bis(3-ethylbenzthiazoline-6) sulfonic acid (ABTS) spectrophotometrically. Standard assay mixtures consisted of 50 mM sodium phosphate, pH 8.1, 0.9% sodium chloride, 0.5 mM ABTS, and H2O2 and salen manganese complex as indicated. Where indicated, 50 mM sodium phosphate buffers of pH 6.0 or pH 7.1 were substituted. Assays were conducted at 27±0.2° C. ABTS oxidation was monitored at 740 or 500 nm to eliminate interference by the salen manganese complexes, many of which absorb in the vicinity of the λmax of oxidized ABTS, and to avoid absorbance values that exceeded the linear range of the spectrophotometer. The amount of oxidized ABTS was estimated using an Δε740 of 20,300 M^−1cm^−1 or an Δε500 of 3400 M^−1cm^−1 calculated based upon the published molar extinction coefficient oat 405 nm (36,800).
(In comparison, horseradish peroxidase utilized t-BHP with an ABTS oxidation rate that was about 5.4% of the rate with H2O2).

[4] = Peroxidase activity, H2O2-dependent oxidation of ABTS; type: biochemical; details: for peroxidase activity (relative, in words): 10 μM salen manganese complex, 0.2 mM H2O2
Description: as §2
Compounds were assayed for SOD as described under Experimental procedures, using cytochrome C as acceptor. The concentration of each compound showing half-maximal activity in this assay is presented. Catalase and peroxidase activities were conducted as described under Experimental Procedures, with 10 μM salen manganese complex. The H2O2 concentration was 10 mM and 0.2 mM in the catalase and peroxidase assays, respectively. Where denoted, “nd” means that the assay was not performed on this compound.
Catalase and peroxidase activities were assayed as described in Example 2. Catalase assays contained 10 μM salen-manganese complex and 10 mM hydrogen peroxide. Peroxidase assays contained 10 μM salen-manganese complex and 0.2 mM hydrogen peroxide. Glucose-glucose oxidase toxicity assays were performed using human dermal fibroblasts as described in Example 2.

[5] = Catalase activity, polarographic oxygen electrode; type: biochemical; details: 10 μM salen manganese complex, 10 mM H2O2
Description: Catalase activity was assayed by monitoring the conversion of H2O2 to oxygen using a Clark-type polarographic oxygen electrode. The apparatus consisted of a Mini Clark Style electrode, a 600 μl Oxygen Uptake Chamber, and a Chemical Microsensor system, all obtained from Diamond General Corporation (Ann Arbor, Mich.). The electrode was calibrated by immersion in nitrogen- or air-equilibrated buffers using a Dual Chamber Calibration Cell (Diamond General, Corp.). Catalase reaction mixtures consisted of 50 mM sodium phosphate, pH 8.1,0.9% sodium chloride, and salen manganese complex and H2O2 at the indicated concentrations. The temperature of the water-jacketed reaction chamber, as well as the calibration buffers, was maintained at 25±0.1° C. Data were collected at 1 sec intervals and stored on a MacIntosh II computer using data acquisition hardware and software by Strawberry Tree, Inc. (Sunnyvale, Calif.). Dissolved oxygen concentrations were calculated as described previously (Del Rio et al. (1977) Anal. Biochem. 80: 409) based on a value of 2.5×10^−4 M oxygen for air-saturated buffer at 25° C. Linearity of the dissolved oxygen measurements within the experimental range was continued by determining the amount of oxygen generated from known quantities of H2O2 during exhaustive treatment with bovine liver catalase. Stock solutions of H2O2 were prepared by diluting a commercial 30% H2O2 solution in water and the H2O2 concentrations in these stocks were determined by absorbance at 240 nm, using a molar extinction coefficient of 44 (Stadtman, E R. et al. (1990) Proc. Natl. Acad. Sci. USA 87: 384). […] In the absence of salen manganese complex, H2O2 alone typically produced an early, relatively slow increase in signal. The slope of this increased signal was not proportional to H2O2 concentration (for example in one experiment, 1 and 10 Mm H2O2 yielded apparent rates of 12 and 14 μM oxygen per min, respectively) and may be due to an electrode artifact. […] Where presented, initial rates were calculated by determining the slope of the linear portion of time dependent plots of oxygen generation, usually comprising the first five seconds of the reaction. Unless otherwise indicated, these were corrected by subtracting the rate obtained with H2O2 alone. Where presented, endpoint oxygen generated was calculated from time-dependent plots, such as those shown in FIG. 14, as the difference between the baseline oxygen concentration immediately prior to-substrate addition and the maximal oxygen concentration achieved during the course of the reaction. All reactions subjected to these calculations were run for a sufficient time to ensure that oxygen generation had ceased.
Compounds were assayed for SOD as described under Experimental procedures, using cytochrome C as acceptor. […]

Hippocampal slices = experiment: Anoxia in hippocampal slices, EPSP recovery; type: cell-based, Sprague-Dawley rats; details: C7 50 μM
Description: Anoxia in hippocampal slices. […] A glass recording micropipet was positioned in CA1 stratum radiatum to record excitatory postsynaptic potential (EPSPs) generated by electrical stimulation of the Schaffer-commissural pathway by a bipolar stimulation electrode at a frequency of 0.033 Hz. During anoxic episodes, the oxygen supply was replaced with 100% N2 gas. N2 was supplied for 90 seconds following electrical silence after which O2 was reintroduced. Recovery of EPSPs (both slope and amplitude) was recorded for 50 minutes, at which time the final viability of the slices was determined, with viability being defined as the ability of the slice to generate a 3 mV EPSP.

CC(=O)[O][Mn]1[O]c2ccccc2C=NCCN=Cc2ccccc2[O]1 [Compound C31]
reduced viability at 80 μM relative to 40 μM together with t-BHP [1]: possible synergistic toxicity with t-BHP | protection against glucose and glucose oxidase (overall, in words) [2]: about equally as effective as C7

horseradish peroxidase
ABTS oxidation rate with t-BHP as percent of the rate with H2O2 [3]: about 5.4%

COc1cccc2c1[O][Mn]([O]C(C)=O)[O]c1c(cccc1OC)C=NCCCN=C2 [Compound C51]
peroxidase activity (relative, in words) [4]: reduced catalase and peroxidase activities | catalase activity, initial rate (relative, in words) [5]: reduced catalase and peroxidase activities

COc1cccc2c1[O][Mn]([O]C(C)=O)[O]c1c(cccc1OC)C=NCCN=C2 [Compound C32]
peroxidase activity (relative, in words) [4]: fastest peroxidases | catalase activity, initial rate (relative, in words) [5]: about twice as fast as C7 | catalase endpoint: total oxygen generated / turnovers completed before the reaction ceased (relative, in words) [5]: almost twice the amount of oxygen as C7 | catalase turnovers before the reaction ceased [5]: about 16 turnovers | protection against glucose and glucose oxidase (overall, in words) [2]: more protective than C43

Purified bovine SOD: purified bovine superoxide dismutase
protection against anoxia-induced decrease in synaptic response in CA1 (EPSP slope and amplitude) (Hippocampal slices): no protection

B1: bovine liver catalase: bovine liver catalase enzyme used as reference (protein, UniProt P00432 2-527, looked up)
Catalase: ADNRDPASDQMKHWKEQRAAQKPDVLTTGGGNPVGDKLNSLTVGPRGPLLVQDVVFTDEMAHFDRERIPERVVHAKGAGAFGYFEVTHDITRYSKAKVFEHIGKRTPIAVRFSTVAGESGSADTVRDPRGFAVKFYTEDGNWDLVGNNTPIFFIRDALLFPSFIHSQKRNPQTHLKDPDMVWDFWSLRPESLHQVSFLFSDRGIPDGHRHMNGYGSHTFKLVNANGEAVYCKFHYKTDQGIKNLSVEDAARLAHEDPDYGLRDLFNAIATGNYPSWTLYIQVMTFSEAEIFPFNPFDLTKVWPHGDYPLIPVGKLVLNRNPVNYFAEVEQLAFDPSNMPPGIEPSPDKMLQGRLFAYPDTHRHRLGPNYLQIPVNCPYRARVANYQRDGPMCMMDNQGGAPNYYPNSFSAPEHQPSALEHRTHFSGDVQRFNSANDDNVTQVRTFYLKVLNEEQRKRLCENIAGHLKDAQLFIQKKAVKNFSDVHPEYGSRIQALLDKYNEEKPKNAVHTYVQHGSHLSAREKANL
reduction of the initial rate of ABTS oxidation by C7 ([4]; 29 units/ml bovine liver catalase added, 10 mM H2O2): 55%

— patent US6900198B2, “Synthetic catalytic free radical scavengers useful as antioxidants for prevention and therapy of disease” (Eukarion, Inc., priority 1995, dated 2005)
